Data from patent US5457182A (Merck & Co., Inc., priority 1994, dated 1995).
“Also recorded” adds a separate entry of the source.

Experiments:
FKBP12.6 [1] = biological target: T1, FKBP12.6 (Bos taurus, UniProt P68107); assay: Inhibition of PPIase activity of FKBP12.6; format: biochemical, bovine (calf brain)
T1 construct: The FKBP12.6 protein has been isolated and purified from calf brain; from tissue; host or cells: calf brain cytosol
Experimental: (§1) PPIase assays were performed as described (Fischer, G., et al., Nature, 337,476-478 (1989)) with the following changes: the peptide substrate used was N-succinyl-Ala-Leu-Pro-Phe-p-nitroanilide (BACHEM, California) at a final concentration of 72 μM and chymotrypsin (Sigma) was present in the assay at a concentration of 6 μM. The total reaction volume was 1.5 ml. The release of p-nitroanilide by chymotrypsin was measured by following the increase in absorbance at 405 nm on a Beckman DU68 spectrophotometer. After an initial rapid rise in absorbance due to hydrolysis of the trans peptide, the slow secondary increase in absorbance which reflects the cis-to-trans conversion of the peptide by the PPIase was measured at 3 sec intervals out to 1.5 min. The data were fitted to a simple first-order rate equation and the first-order rate constant, k (s^-1), calculated.

FKBP12.6 [2] = biological target: T1, FKBP12.6; assay: [3H]dihydroFK-506 direct binding (LH-20 assay), Scatchard, FKBP12.6; parameters: species or system bovine (calf brain); details: direct binding data, Scatchard format
Experimental: (§2) The basic LH-20 binding assay was performed as described by Handschumacher,R., et al., Science, 226, 544-547 (1984) with the modifications noted in Siekierka, J., et al., Nature, 341, 755-757 (1989).

FKBP12 = FKBP12 (Homo sapiens, UniProt P62942); assay: [3H]dihydroFK-506 direct binding, FKBP12; details: unit inferred
Experimental: as §2

JURKAT cells = assay: IL-2 secretion in JURKAT cells stimulated with PMA and ionomycin; format: cell-based, human
[3] = literature; cited from earlier work
[4] = FK-506 specific binding activity of FKBP12.6 preparations (LH-20 assay)
Experimental: However, FKBP12.6 is separated completely from authentic FKBP12 in Step II by chromatography on the CM-450M column. FKBP12.6 remains bound to the CM column while FKBP12 flows through during loading and washing. FKBP12.6 elutes from the column between 100 and 200 mM NaCl and Westerns of the gradient fractions using the anti-C-terminal peptide antibody confirm that there is no trace of FKBP12 present in the FKBP12.6 fractions. Because of the presence of FKBP12 in the S200, the recovery of FKBP12.6 may only be calculated from the CM-450M step forward using the standard LH-20 binding assay (Handschumacher, R., et al., Science. 226, 544-547 (1984)).
Starting with approximately 60 grams of protein in the crude cytosolic brain extract, a typical yield after purification is about 50 μg of homogeneous FKBP12.6 (see Table I). […] FKBP12.6 was eluted from the resin with 4M guanidine-HCl and renatured by dialysis. […] This calculates to a 3,271-fold purification from the CM-450M step. Because the CM-450M step removes 94% of the protein from the crude extract, the overall s purification from the S200 is actually much greater. In calf brain cytosol then, FKBP12.6 is clearly much less abundant than FKBP12 is in calf thymus which was purified from that tissue 337-fold to homogeneity with almost the identical recovery (Siekierka, J., et al., Nature, 341, 755-757 (1989)). […] A second explanation for the lower than expected binding is that the LH-20 assay used to estimate binding is not an equilibrium binding assay and ligand off-rates will result in lower calculated specific binding activities. A third explanation is that all of the FKBP12.6 may not be […] properly and the […] protein may not bind effectively.
as §2

[5] = Peptidyl-prolyl cis-trans isomerase (PPIase) activity; format: biochemical
Experimental: as §1

calcineurin [6] = assay: Calcineurin phosphatase assay; format: biochemical, bovine
Experimental: For a side-by-side comparison, FKBP12 was also tested for its ability to inhibit calcineurin in the presence of drug.
The calcineurin phosphatase assay is a modified version of previous assays (Liu, J., et al., Cell, 66, 807-815 (1991); Manalan, A., et al., Proc. Natl. Acad. Sci. U.S.A., 80, 4291-4295 (1983)). Reaction mixtures ([…] contained: 40 mM Tris (pH 8), 100 mM NaCl, 6 mM Mg(OAc)2, 0.1 mM CaCl2, 0.1 mg/ml BSA, 0.5 mM dithiothreitol, 190 nM bovine brain calmodulin (Sigma), 3 nM bovine brain calcineurin (Sigma), and 40 μM [^33 P]RII peptide (Peptides International) (600 cpm/pmole). Reaction mixtures were pre-incubated for 30 min at 30° C. prior to addition of the labeled peptide. The reaction was initiated by addition of the peptide and the dephosphorylation reaction was allowed to proceed for 10 min at 30° C. The reaction was terminated by the addition of 0.5 ml of 5% trichloroacetic acid containing 100 mM sodium phosphate (stop buffer) and applied to a 0.5 ml Dowex 50W-X8, H^+ column. Free [^33 P]phosphate was eluted from the column with 0.5 ml of stop buffer followed by 0.5 ml of water.

calcineurin [7] = assay: FKBP.FK-506.CaN complex-formation assay (size-exclusion column, Western analysis); format: binding, bovine; details: Ca^2+
Experimental: In the modified assay, samples were assayed by Western analysis using the anti-C-terminal peptide antibody in order to identify FKBP12 and FKBP12.6 in various chromatographic fractions.
In the first experiment, FKBP12 and FKBP12.6 were partially purified by preparative HPLC gel filtration chromatography on a Bio-Sil TSK-125 column. These partially purified FKBPs (containing both FKBP12 and FKBP12.6) are devoid of CaN which separates completely from them on this column. FKBP12 and FKBP12.6 co-elute at fractions 26 and 27 on the analytical sizing column (G2000SW) used in this experiment. […] Because this crude FKBP material also contains FKBP12.6, it can also be observed migrating slightly above FKBP12 in FIG. 4A.
To more carefully examine the requirements for FKBP12.6 complex formation with CaN, experiments were conducted using purified FKBP12.6.
The incubation buffer contained 20 mM Tris (pH 7.5), 100 mM NaCl, 6 mM MgCl2, 0.1 mM CaCl2, 0.1 mg/ml BSA, and 0.5 mM dithiothreitol. The incubation reaction was chromatographed on a Bio-Sil SEC400 HPLC column (Bio-Rad) at a flow rate of 1 ml/min and 1 min fractions were collected. The chromatography buffer was the same as the incubation buffer except that BSA was omitted. 30 μl of fractions 19-29 were subjected to electrophoresis on a 16% Novex Tris-Glycine gel and Western analysis was performed as described above.

Heat stability = format: physicochemical
[8] = FK-506 specific binding activity of FKBP12.6 preparations (LH-20 assay); details: Step II. CM-650M
[9] = partially purified FKBP12.6 (Step VI)

T1 sequence (P68107 whole entry): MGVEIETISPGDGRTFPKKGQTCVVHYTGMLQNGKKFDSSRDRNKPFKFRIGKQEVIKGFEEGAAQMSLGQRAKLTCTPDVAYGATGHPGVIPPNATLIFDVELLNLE
FKBP12, sequence (P62942 whole entry, species assumed): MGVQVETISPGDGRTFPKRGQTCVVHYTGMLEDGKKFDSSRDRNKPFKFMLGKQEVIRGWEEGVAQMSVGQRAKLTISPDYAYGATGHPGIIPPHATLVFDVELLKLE

Compound: CO[C@H]1C[C@@H]2CC[C@@H](C)[C@@](O)(O2)C(=O)C(=O)N2CCCC[C@H]2C(=O)O[C@H]([C@H](C)C[C@@H]2CC[C@@H](O)[C@H](OC)C2)CC(=O)[C@H](C)/C=C(\C)[C@@H](O)[C@@H](OC)C(=O)[C@H](C)C[C@H](C)/C=C/C=C/C=C/1C [rapamycin]
- inhibition of PPIase activity of FKBP12.6 (FKBP12.6 [1]; [9]): potent inhibitors
- inhibition of PPIase activity relative to FK-506 (FKBP12.6 [1]; [9]): somewhat better inhibitor than FK-506

Compound: [3H]CC([3H])C[C@@H]1/C=C(\C)C[C@H](C)C[C@H](OC)[C@H]2O[C@@](O)(C(=O)C(=O)N3CCCC[C@H]3C(=O)O[C@H](/C(C)=C/[C@@H]3CC[C@@H](O)[C@H](OC)C3)[C@H](C)[C@@H](O)CC1=O)[C@H](C)C[C@@H]2OC (stereo partly drawn) [[^3 H]dihydroFK-506]
- Kd (FKBP12.6 [2]): 0.55 nM
- Kd (FKBP12): 0.4 nM
- inhibition of IL-2 secretion (JURKAT cells; JURKAT cells, PMA and ionomycin): potent inhibitor
- potency relative to parent compound (times less potent) (JURKAT cells; inhibition of IL-2 secretion, parent FK-506): 5 times

Compound: C=CCC1C=C(C)CC(C)CC(OC)C2OC(O)(C(=O)C(=O)N3CCCCC3C(=O)OC(C(C)=CC3CCC(O)C(OC)C3)C(C)C(O)CC1=O)C(C)CC2OC (stereo not drawn) [FK-506, 17-allyl-1,14-dihydroxy-12-[2'-(4"-hydroxy-3"-methoxycyclohexyl)-1'-methylvinyl]-23,25-dimethoxy-13,19,21,27-tetramethyl-11,28-dioxa-4-azatricyclo-[22.3.1.0^4,9]octacos-18-ene-2,3,10,16-tetraone]
- specific inhibition of FKBP12.6 PPIase activity (FKBP12.6 [1]; Example 4): specifically inhibited by FK-506
- inhibition of PPIase activity of FKBP12.6 (FKBP12.6 [1]; [9]): potent inhibitors
- neurological toxicities [3]: neurological toxicities, which include drowsiness, lethargy, tremors, and aggressiveness

Compound: FKBP12.6: homogeneous cytosolic binding protein for FK-506, 10-12 kilodaltons, from calf brain; partial sequence SEQ ID NO: 1
- specific binding activity ([4]; FKBP12.6 characteristic, summary): about 4.8 micrograms FK-506 per mg FKBP12.6 protein
- FK-506 Binding (ng FK-506 bound/mg protein) ([4]; Step III. TSK-125 HPLC): 4.23 ng FK-506 bound/mg protein
- FK-506 Binding (ng FK-506 bound/mg protein) ([4]; Step IV. CM-3SW HPLC): 13.3 ng FK-506 bound/mg protein
- FK-506 Binding (ng FK-506 bound/mg protein) ([4]; Step V. Phenyl-5PW HPLC): 52.85 ng FK-506 bound/mg protein
- FK-506 Binding (ng FK-506 bound/mg protein) ([4]; Step VI. G2000SW HPLC, about 25% pure): 1278.3 ng FK-506 bound/mg protein
- FK-506 Binding (ng FK-506 bound/mg protein) ([4]; Step VII. FK-506 Affinity): 4874.0 ng FK-506 bound/mg protein
- theoretical specific binding activity ([4]; assuming mass of 12.6 kDa and 1 mole FK-506 per mole protein): 64 mg of [^3 H]dihydroFK-506 per
- specific binding activity ([4]; purified FKBP12.6): 4.8 μg of [^3 H]dihydroFK-506 per mg of protein
- retention of binding to FK-506 ([4]; renatured material): retains binding to FK-506
- PPIase activity compared with FKBP12 ([5]; 25% purity of FKBP12.6 factored in): virtually equivalent to that of FKBP12
- PPIase activity ([5]; Example 4): low, but significant PPIase activity
- PPIase activity ([5]; material from step VI): did have PPIase activity
- PPIase activity ([5]; renatured material (Step VII)): did not have PPIase activity
- IC50 (calcineurin [6]; in presence of FK-506, CaN, CaM, Ca^2+, Mg^2+, read-out: IC50 for inhibition of CaN): 16 nM
- ability to block CaN phosphatase activity relative to FKBP12 (calcineurin [6]; in presence of FK-506, FIG. 5): almost equipotent to FKBP12
- complex formation with CaN (calcineurin [7]; partially purified FKBPs, CaM, Mg^2+ and FK-506): Most of the FKBP12.6 is shifted to a high molecular weight complex
- complex formation with CaN (calcineurin [7]; purified FKBP12.6, CaM, Mg^2+ and FK-506): all of the immunoreactive FKBP12.6 is shifted to fractions (20-22)
- complex formation with CaN (calcineurin [7]; purified FKBP12.6, CaM, Mg^2+, without FK-506): continues to elute at fractions 26 and 27
- stability to heating (Heat stability; 56° C. for 30 minutes): not stable upon heating; also recorded: unstable to heating
- effect of heat-treatment step (Heat stability; cytosolic extract from calf brain): complete loss of FKBP12.6
- FK-506 Binding (ng FK-506 bound/mg protein) [8]: 1.49 ng FK-506 bound/mg protein
